{"source": "ChEMBL document CHEMBL4359843", "about": "“Linear and Rationally Designed Stapled Peptides Abrogate TLR4 Pathway and Relieve Inflammatory Symptoms in Rheumatoid Arthritis Rat Model” (J Med Chem, 2019)", "key": {"[1]": {"tested_on": "Rattus norvegicus", "test": "Antiarthritic activity in Lewis rat model of complete Freund's adjuvant-induced arthritis assessed as increase in osteocytes within lacunae at 1 nmol/g administered intra-articularly into knee joint after 4 to 6 week by H and E staining based histopathological analysis", "assay_type": "functional, organism-based"}, "[2]": {"target": "T1, Toll-like receptor 1/2 (Homo sapiens) (UniProt O60603+Q15399)", "test": "Antagonist activity at TLR2/1 in human THP1 cells assessed as reduction in PAM3CSK4-induced IL6 secretion at 50 uM after 24 hrs by ELISA", "assay_type": "cell-based"}, "[3]": {"tested_on": "Rattus norvegicus", "test": "Antiarthritic activity in Lewis rat model of complete Freund's adjuvant-induced arthritis assessed as reduction in TNFalpha expression in synovial tissues at 1 nmol/g administered intra-articularly into knee joint measured at 1 week by TNFalpha staining based immunohistochemical analysis", "assay_type": "functional, organism-based"}, "[4]": {"tested_on": "Rattus norvegicus", "test": "Antiarthritic activity in Lewis rat model of complete Freund's adjuvant-induced arthritis assessed as reduction in ankle swelling and edema at 1 nmol/g administered intra-articularly into knee joint after 2 weeks by visual analysis", "assay_type": "functional, organism-based"}, "[5]": {"tested_on": "Rattus norvegicus", "test": "Antiarthritic activity in Lewis rat model of complete Freund's adjuvant-induced arthritis assessed as reduction in mean articular index score at 1 nmol/g administered intra-articularly into knee joint for 6 weeks and measured every week during compound dosing", "assay_type": "functional, organism-based"}, "[6]": {"tested_on": "Rattus norvegicus", "test": "Antiarthritic activity in Lewis rat model of complete Freund's adjuvant-induced arthritis assessed as appearance of osteocytes at 1 nmol/g administered intra-articularly into knee joint after 1 week by H and E staining based histopathological analysis", "assay_type": "functional, organism-based"}, "[7]": {"tested_on": "Rattus norvegicus", "test": "Antiarthritic activity in Lewis rat model of complete Freund's adjuvant-induced arthritis assessed as reduction in ankle diameter at 1 nmol/g administered intra-articularly into knee joint for 6 weeks and measured every week during compound dosing by vernier caliper analysis", "assay_type": "functional, organism-based"}, "[8]": {"target": "T2, TLR2/TLR6 (Homo sapiens) (UniProt O60603+Q9Y2C9)", "test": "Antagonist activity at TLR2/6 in human THP1 cells assessed as reduction in FSL-1-induced IL6 secretion at 50 uM after 24 hrs by ELISA", "assay_type": "cell-based"}, "[9]": {"target": "T3, Toll-like receptor 4 (Homo sapiens, UniProt O00206)", "T3 sequence (O00206 whole entry)": "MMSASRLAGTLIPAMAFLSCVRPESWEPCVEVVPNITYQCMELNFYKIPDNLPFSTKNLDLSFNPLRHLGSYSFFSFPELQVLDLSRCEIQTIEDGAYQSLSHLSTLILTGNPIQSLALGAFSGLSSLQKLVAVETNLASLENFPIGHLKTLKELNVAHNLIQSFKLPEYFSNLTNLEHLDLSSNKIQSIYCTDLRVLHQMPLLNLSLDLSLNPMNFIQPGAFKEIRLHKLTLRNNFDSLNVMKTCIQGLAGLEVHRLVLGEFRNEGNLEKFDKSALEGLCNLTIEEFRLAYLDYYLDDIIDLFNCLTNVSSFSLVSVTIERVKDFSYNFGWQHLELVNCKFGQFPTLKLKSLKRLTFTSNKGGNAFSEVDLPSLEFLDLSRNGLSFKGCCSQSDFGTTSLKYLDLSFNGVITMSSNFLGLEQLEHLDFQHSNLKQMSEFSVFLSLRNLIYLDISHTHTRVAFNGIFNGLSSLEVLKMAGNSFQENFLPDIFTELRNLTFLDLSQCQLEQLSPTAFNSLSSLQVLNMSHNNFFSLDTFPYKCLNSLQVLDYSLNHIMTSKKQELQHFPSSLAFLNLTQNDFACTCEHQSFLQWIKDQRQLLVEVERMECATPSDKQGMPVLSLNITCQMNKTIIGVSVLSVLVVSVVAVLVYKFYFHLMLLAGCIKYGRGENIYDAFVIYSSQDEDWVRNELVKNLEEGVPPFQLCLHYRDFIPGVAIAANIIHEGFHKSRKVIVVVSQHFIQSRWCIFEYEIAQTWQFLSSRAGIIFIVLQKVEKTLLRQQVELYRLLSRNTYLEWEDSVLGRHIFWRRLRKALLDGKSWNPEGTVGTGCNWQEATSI", "test": "Antagonist activity at human TLR4 expressed in HEK-Blue cells assessed as reduction in LPS-induced SEAP activity pre-incubated for 1 hr followed by LPS stimulation and measured after 24 hrs by SEAP assay", "assay_type": "cell-based"}, "[10]": {"target": "T1, Toll-like receptor 1/2 (Homo sapiens)", "test": "Antagonist activity at TLR2/1 in human PBMC cells assessed as reduction in PAM3CSK4-induced TNFalpha secretion at 20 to 80 uM after 24 hrs by ELISA", "assay_type": "cell-based"}, "[11]": {"tested_on": "Mus musculus", "test": "Antiinflammatory activity in C57BL/6J mouse assessed as reduction in LPS-induced TNFalpha secretion at 70 nmol/g, ip pretreated for 1 hr followed by LPS challenge and measured after 2 hrs by ELISA", "assay_type": "functional, organism-based"}, "[12]": {"target": "T3, Toll-like receptor 4", "test": "Antagonist activity at TLR4 in human PBMC cells assessed as reduction in LPS-induced TNFalpha secretion at 20 to 80 uM after 24 hrs by ELISA", "assay_type": "cell-based"}, "[13]": {"target": "T4, Toll-like receptor 4 (Mus musculus) (UniProt Q9QUK6)", "T4 sequence (whole entry)": "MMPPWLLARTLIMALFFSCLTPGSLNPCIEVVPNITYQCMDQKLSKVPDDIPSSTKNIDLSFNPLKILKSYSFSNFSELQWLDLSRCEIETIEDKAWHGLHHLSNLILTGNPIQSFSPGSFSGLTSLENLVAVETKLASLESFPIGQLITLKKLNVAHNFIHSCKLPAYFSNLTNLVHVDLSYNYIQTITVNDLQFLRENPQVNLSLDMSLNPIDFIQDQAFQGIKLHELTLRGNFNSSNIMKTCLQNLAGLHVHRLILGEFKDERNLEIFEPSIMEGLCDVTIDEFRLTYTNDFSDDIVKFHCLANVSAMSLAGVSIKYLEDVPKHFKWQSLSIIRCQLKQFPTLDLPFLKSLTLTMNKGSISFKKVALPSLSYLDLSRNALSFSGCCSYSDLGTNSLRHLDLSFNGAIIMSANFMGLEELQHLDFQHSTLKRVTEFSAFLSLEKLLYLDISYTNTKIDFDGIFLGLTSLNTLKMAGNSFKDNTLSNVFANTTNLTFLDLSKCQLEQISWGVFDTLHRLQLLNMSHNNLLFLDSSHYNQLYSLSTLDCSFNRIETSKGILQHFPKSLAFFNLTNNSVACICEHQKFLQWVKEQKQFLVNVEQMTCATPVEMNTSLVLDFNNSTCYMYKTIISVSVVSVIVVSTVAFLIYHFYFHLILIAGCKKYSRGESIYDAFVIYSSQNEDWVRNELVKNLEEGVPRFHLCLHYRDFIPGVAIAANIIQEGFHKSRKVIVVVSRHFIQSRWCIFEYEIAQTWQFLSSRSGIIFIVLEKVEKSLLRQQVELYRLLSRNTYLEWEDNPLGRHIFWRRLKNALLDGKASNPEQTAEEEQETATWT", "test": "Antagonist activity at TLR4 in mouse RAW264.7 cells assessed as reduction in LPS-induced ATF3 activation at 80 uM after 120 to 240 mins by Western blot analysis", "assay_type": "cell-based"}, "[14]": {"tested_on": "RAW264.7", "test": "Cytotoxicity against mouse RAW264.7 cells assessed as reduction in cell viability at 20 to 80 uM after 24 hrs by MTT assay", "assay_type": "cell-based", "settings": "raw264.7, 24 h"}, "[15]": {"tested_on": "RAW264.7", "test": "Cytotoxicity against mouse RAW264.7 cells assessed as reduction in cell viability at 100 uM after 24 hrs by MTT assay", "assay_type": "cell-based", "settings": "raw264.7, 24 h"}, "[16]": {"target": "T3, Toll-like receptor 4", "test": "Antagonist activity at TLR4 in human PBMC cells assessed as reduction in LPS-induced JNK phosphorylation at 80 uM after 15 to 30 mins by Western blot analysis", "assay_type": "cell-based"}, "[17]": {"target": "T3, Toll-like receptor 4", "test": "Antagonist activity at TLR4 in human PBMC cells assessed as reduction in LPS-induced NFkappaB p65 phosphorylation at 80 uM after 15 to 30 mins by Western blot analysis", "assay_type": "cell-based"}, "[18]": {"target": "T2, TLR2/TLR6 (Homo sapiens)", "test": "Antagonist activity at TLR2/6 in human PBMC cells assessed as reduction in FSL-1-induced IL6 secretion at 20 to 80 uM after 24 hrs by ELISA", "assay_type": "cell-based"}, "[19]": {"target": "T4, Toll-like receptor 4 (Mus musculus)", "test": "Antagonist activity at TLR4 in mouse BMDM cells assessed as reduction in LPS-induced IL6 secretion at 20 to 80 uM after 24 hrs by ELISA", "assay_type": "cell-based"}, "[20]": {"target": "T4, Toll-like receptor 4 (Mus musculus)", "test": "Antagonist activity at TLR4 in mouse RAW264.7 cells assessed as reduction in LPS-induced NFkappaB p65 phosphorylation at 80 uM preincubated for 1 hr followed by LPS stimulation and measured after 30 mins by Alexafluor-488/Hoechst 33258 staining based immunofluorescence confocal microscopic method", "assay_type": "cell-based"}, "[21]": {"target": "T4, Toll-like receptor 4 (Mus musculus)", "test": "Antagonist activity at TLR4 in mouse RAW264.7 cells assessed as reduction in LPS-induced IRF3 phosphorylation at 80 uM after 120 to 240 mins by Western blot analysis", "assay_type": "cell-based"}, "[22]": {"target": "TLR2/TLR6 (Mus musculus) (UniProt Q9QUN7+Q9EPW9)", "test": "Antagonist activity at TLR2/6 in mouse RAW264.7 cells assessed as reduction in FSL-1-induced TNFalpha secretion at 20 to 80 uM after 24 hrs by ELISA", "assay_type": "cell-based"}, "[23]": {"target": "T4, Toll-like receptor 4 (Mus musculus)", "test": "Antagonist activity at TLR4 in mouse RAW264.7 cells assessed as reduction in LPS-induced ERK phosphorylation at 80 uM after 15 to 30 mins by Western blot analysis", "assay_type": "cell-based"}}, "note": "The source made the active and inactive calls. No cut-off for these calls is given here. Where a SMILES comes first, the peptide text is derived from it. Bridges are numbered along the chain shown (N, C = ends).", "data": [{"compound": "CC[C@H](C)[C@@H]1NC(=O)[C@H](Cc2c[nH]c3ccccc23)NC(=O)[C@H](Cc2c[nH]c3ccccc23)NC(=O)[C@@H](NC(=O)[C@H](CO)NC(=O)[C@H](Cc2ccccc2)NC(=O)[C@@H](NC(=O)CNC(=O)[C@@H](N)CC(C)C)C(C)C)CC(=O)NCCCC[C@@H](C(=O)N[C@@H](CC(C)C)C(=O)N[C@H](C(=O)O)C(C)C)NC1=O", "note": "(H-LGVFSDWWIKLV-OH; lactam 6-10)", "values": [{"measurement": "Activity", "setting": "[1]", "result": "Active"}, {"measurement": "Activity", "setting": "[2]", "result": "Active"}, {"measurement": "Activity", "setting": "[3]", "result": "Active"}, {"measurement": "Activity", "setting": "[4]", "result": "Active"}, {"measurement": "Activity", "setting": "[5]", "result": "Active"}, {"measurement": "Activity", "setting": "[6]", "result": "Active"}, {"measurement": "Activity", "setting": "[7]", "result": "Active"}, {"measurement": "Activity", "setting": "[8]", "result": "Active"}]}, {"compound": "H-LGVFSSWWIKLV-OH", "values": [{"measurement": "Activity", "setting": "[9]", "result": "Dose-dependent effect"}, {"measurement": "Activity", "setting": "[10]", "result": "inactive"}, {"measurement": "Activity", "setting": "[11]", "result": "Active"}, {"measurement": "Activity", "setting": "[12]", "result": "Active"}, {"measurement": "Activity", "setting": "[13]", "result": "Active"}, {"measurement": "Activity", "setting": "[14]", "result": "Non-Toxic"}, {"measurement": "Activity", "setting": "[15]", "result": "Toxic"}, {"measurement": "Activity", "setting": "[16]", "result": "Active"}, {"measurement": "Activity", "setting": "[17]", "result": "Active"}, {"measurement": "Activity", "setting": "[18]", "result": "inactive"}, {"measurement": "Activity", "setting": "[19]", "result": "Active"}, {"measurement": "Activity", "setting": "[20]", "result": "Active"}, {"measurement": "Activity", "setting": "[21]", "result": "Active"}, {"measurement": "Activity", "setting": "[22]", "result": "inactive"}, {"measurement": "Activity", "setting": "[23]", "result": "Active"}]}]}
